Results from ChEMBL document CHEMBL1151023, “1,1-Dicyano-2-substituted ethylenes: A new class of glucose uptake inhibitors in antifilarial chemotherapy” (1997).

Columns and labels:
Assay type in all cases: functional
Acanthocheilonema viteae [1] = test: Effect of compound on glucose uptake in Acanthocheilonema viteae at 10 uM concentration (p<0.05)
Mastomys coucha [2] = test: Tested for in vivo antifilarial activity against Acanthocheilonema viteae microfilariae infection in Mastomys coucha at 50 mg/kgx 5 days after ip administration, expressed as % reduction in parasite load; conditions: dose 50 mg/kg; route intraperitoneal
Mastomys coucha [3] = test: Tested for in vivo antifilarial activity against Acanthocheilonema viteae macrofilariae infection in Mastomys coucha at 50 mg/kgx 5 days after ip administration, expressed as % reduction in parasite load; conditions: dose 50 mg/kg; route intraperitoneal
Acanthocheilonema viteae [4] = test: Effect of compound on ATP content in Acanthocheilonema viteae at 10 uM concentration (p>0.05)
Acanthocheilonema viteae [5] = test: Effect of compound on lactate produced in Acanthocheilonema viteae at 10 uM concentration (p>0.05)
Acanthocheilonema viteae [6] = test: Effect of compound on lactate produced in Acanthocheilonema viteae at 10 uM concentration(p<0.005)
Acanthocheilonema viteae [7] = test: Effect of compound on ATP content in Acanthocheilonema viteae at 10 uM concentration (p<0.005)
Acanthocheilonema viteae [8] = test: Effect of compound on glucose uptake in Acanthocheilonema viteae at 10 uM concentration(p<0.005)
Acanthocheilonema viteae [9] = test: Effect of compound on glucose uptake in Acanthocheilonema viteae at 10 uM concentration (p<0.005)
Acanthocheilonema viteae [10] = test: Effect of compound on lactate produced in Acanthocheilonema viteae at 10 uM concentration (p<0.005)
Mastomys coucha [11] = test: Tested for in vivo antifilarial activity against Litomosoides carinii microfilariae infection in Mastomys coucha at 30 mg/kgx 5 days after ip administration, expressed as % reduction in parasite load with 30% sterilization of female worms; conditions: dose 30 mg/kg; route intraperitoneal
Mastomys coucha [12] = test: Tested for in vivo antifilarial activity against Litomosoides carinii macrofilariae infection in Mastomys coucha at 30 mg/kgx 5 days after ip administration, expressed as % reduction in parasite load with 30% sterilization of female worms; conditions: dose 30 mg/kg; route intraperitoneal
Acanthocheilonema viteae [13] = test: Effect of compound on lactate produced in Acanthocheilonema viteae at 10 uM concentration (p<0.05)
Acanthocheilonema viteae [14] = test: Effect of compound on glucose uptake in Acanthocheilonema viteae at 10 uM concentration (p>0.05)
Mastomys coucha [15] = test: Tested for in vivo antifilarial activity against A. viteae microfilariae infection in Mastomys coucha at 50 mg/kgx 5 days after ip administration, expressed as % reduction in parasite load; conditions: dose 50 mg/kg; route intraperitoneal
Mastomys coucha [16] = test: Tested for in vivo antifilarial activity against Litomosoides carinii microfilariae infection in Mastomys coucha at 6 mg/kgx 5 days after ip administration, expressed as % reduction in parasite load; conditions: dose 6 mg/kg; route intraperitoneal
Mastomys coucha [17] = test: Tested for in vivo antifilarial activity against Litomosoides carinii macrofilariae infection in Mastomys coucha at 350 mg/kgx 5 days after ip administration, expressed as % reduction in parasite load; conditions: dose 350 mg/kg; route intraperitoneal
Mastomys coucha [18] = test: Tested for in vivo antifilarial activity against Litomosoides carinii microfilariae infection in Mastomys coucha at 350 mg/kgx 5 days after ip administration, expressed as % reduction in parasite load; conditions: dose 350 mg/kg; route intraperitoneal
Acanthocheilonema viteae [19] = test: Effect of compound on lactate produced in Acanthocheilonema viteae at 10 uM concentration(p>0.05)
Mastomys coucha [20] = test: Tested for in vivo antifilarial activity against Litomosoides carinii macrofilariae infection in Mastomys coucha at 6 mg/kgx 5 days after ip administration, expressed as % reduction in parasite load; conditions: dose 6 mg/kg; route intraperitoneal

| SMILES | Reduction (Mastomys coucha [2]) | Reduction (Mastomys coucha [3]) | ATP content (Acanthocheilonema viteae [4]) | Lactate produced (Acanthocheilonema viteae [5]) | ATP content (Acanthocheilonema viteae [7]) | Glucose uptake (Acanthocheilonema viteae [14]) | further results |
| --- | --- | --- | --- | --- | --- | --- | --- |
| N#CC(C#N)=CNCCO | 82% | 0% | 47.8 pM (mg of protein)-1 | 343 nM/h (mg of worm) | – | – | Glucose uptake (Acanthocheilonema viteae [1]): 164 nM/h (mg of worm) |
| N#CC(C#N)=CNc1ccc(F)cc1 | 91% | 0% | – | – | 16.9 pM (mg of protein)-1 | – | Lactate produced (Acanthocheilonema viteae [6]): 222 nM/h (mg of worm); Glucose uptake (Acanthocheilonema viteae [8]): 56 nM/h (mg of worm) |
| N#CC(C#N)=CN1CCN(c2ccccn2)CC1 | – | – | – | – | 37.1 pM (mg of protein)-1 | – | Glucose uptake (Acanthocheilonema viteae [9]): 105 nM/h (mg of worm); Lactate produced (Acanthocheilonema viteae [10]): 157 nM/h (mg of worm); Reduction (Mastomys coucha [11]): 60%; Reduction (Mastomys coucha [12]): 60% |
| N#CC(C#N)=CN1CCN(C=C(C#N)C#N)CC1 | 0% | 81% | – | – | 25.7 pM (mg of protein)-1 | – | Glucose uptake (Acanthocheilonema viteae [1]): 327 nM/h (mg of worm); Lactate produced (Acanthocheilonema viteae [13]): 258 nM/h (mg of worm) |
| N#CC(C#N)=CN(CCO)CCO | 76% | 0% | 49.3 pM (mg of protein)-1 | 405 nM/h (mg of worm) | – | 204 nM/h (mg of worm) | – |
| N#CC(C#N)=CNc1ccccc1 | – | 0% | 53.5 pM (mg of protein)-1 | 443 nM/h (mg of worm) | – | 189 nM/h (mg of worm) | Reduction (Mastomys coucha [15]): 47% |
| CCN(CC)C(=O)N1CCN(C)CC1.O=C(O)CC(O)(CC(=O)O)C(=O)O [DIETHYLCARBAMAZINE CITRATE] | – | – | 55.6 pM (mg of protein)-1 | – | – | 256 nM/h (mg of worm) | Reduction (Mastomys coucha [16]): 98%; Reduction (Mastomys coucha [17]): 0%; Reduction (Mastomys coucha [18]): 90%; Lactate produced (Acanthocheilonema viteae [19]): 461 nM/h (mg of worm); Reduction (Mastomys coucha [20]): 0% |
